Source: ChEMBL document CHEMBL1201861, “Genomics of Drug Sensitity in Cancer screening data, Wellcome Trust Sanger Institute”

Legend:
Assay in all cases: cells
Assay type in all cases: functional, cell-based, Homo sapiens
[1] = tested on: EFO-27; conditions: Homo sapiens, EFO-27;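 note: growth inhibition of EFO-27 cells, read out with a cell viability assay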
Description: SANGER: Inhibition of human EFO-27 cell growth in a cell viability assay.

[2] = tested on: OVCAR-8; conditions: Homo sapiens, OVCAR-8;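 note: growth inhibition of human OVCAR-8 cells, read out by a cell viability assay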
Description: SANGER: Inhibition of human OVCAR-8 cell growth in a cell viability assay.

[3] = tested on: MDA-MB-175-VII; conditions: Homo sapiens, MDA-MB-175-VII
[4] = tested on: BPH-1; conditions: Homo sapiens, BPH-1;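 note: cell viability assay measuring growth inhibition of human BPH-1 cells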
Description: SANGER: Inhibition of human BPH-1 cell growth in a cell viability assay.

[5] = tested on: DBTRG-05MG; conditions: Homo sapiens, DBTRG-05MG;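 note: cell viability assay measuring growth inhibition of human DBTRG-05MG cells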
Description: SANGER: Inhibition of human DBTRG-05MG cell growth in a cell viability assay.

[6] = tested on: NCI-H2087; conditions: Homo sapiens, NCI-H2087;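 note: growth inhibition determined with a cell viability readout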
Description: SANGER: Inhibition of human NCI-H2087 cell growth in a cell viability assay.

[7] = tested on: SNU-449; conditions: Homo sapiens, SNU-449
Description: SANGER: Inhibition of human SNU-449 cell growth in a cell viability assay.

[8] = tested on: HCT-116; conditions: Homo sapiens, HCT-116
Description: SANGER: Inhibition of human HCT-116 cell growth in a cell viability assay.

[9] = tested on: YH-13; conditions: Homo sapiens, YH-13;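 note: cell viability readout of growth suppression in the human YH-13 cell line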
Description: SANGER: Inhibition of human YH-13 cell growth in a cell viability assay.

[10] = tested on: IGR-1; conditions: Homo sapiens, IGR-1;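 note: growth inhibition of human IGR-1 cells, read out with a cell viability assay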
Description: SANGER: Inhibition of human IGR-1 cell growth in a cell viability assay.

[11] = tested on: HEC-1; conditions: Homo sapiens, HEC-1;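 note: growth inhibition of the cell line, read out with a cell viability assay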
Description: SANGER: Inhibition of human HEC-1 cell growth in a cell viability assay.

[12] = tested on: SK-LU-1; conditions: Homo sapiens, SK-LU-1;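 note: cell viability assay measuring growth inhibition of human SK-LU-1 cells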
Description: SANGER: Inhibition of human SK-LU-1 cell growth in a cell viability assay.

[13] = tested on: OC-314; conditions: Homo sapiens, OC-314
Description: SANGER: Inhibition of human OC-314 cell growth in a cell viability assay.

[14] = tested on: HGC-27; conditions: Homo sapiens, HGC-27;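 note: growth inhibition of human HGC-27 cells, read out in a cell viability assay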
Description: SANGER: Inhibition of human HGC-27 cell growth in a cell viability assay.

[15] = tested on: U-251; conditions: Homo sapiens, U-251;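 note: growth inhibition of human U-251 cells, read out through a cell viability assay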
Description: SANGER: Inhibition of human U251 cell growth in a cell viability assay.

[16] = tested on: HCC1395; conditions: Homo sapiens, HCC1395;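 note: growth inhibition of HCC1395 cells, read out by a cell viability assay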
Description: SANGER: Inhibition of human HCC1395 cell growth in a cell viability assay.

[17] = tested on: KOSC-2; conditions: Homo sapiens, KOSC-2;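 note: growth inhibition of KOSC-2 cells, read out by a cell viability assay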
Description: SANGER: Inhibition of human KOSC-2 cell growth in a cell viability assay.

[18] = tested on: MDA-MB-231; conditions: Homo sapiens, MDA-MB-231
Description: SANGER: Inhibition of human MDA-MB-231 cell growth in a cell viability assay.

[19] = tested on: NCI-H292; conditions: Homo sapiens, NCI-H292;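 note: growth inhibition of NCI-H292 cells, read out with a cell viability assay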
Description: SANGER: Inhibition of human NCI-H292 cell growth in a cell viability assay.

[20] = tested on: HCC1419; conditions: Homo sapiens, HCC1419;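 note: growth inhibition of human HCC1419 cells, read out as cell viability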
Description: SANGER: Inhibition of human HCC1419 cell growth in a cell viability assay.

[21] = tested on: MHH-ES-1; conditions: Homo sapiens, MHH-ES-1;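 note: cell growth inhibition measured by a cell viability assay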
Description: SANGER: Inhibition of human MHH-ES-1 cell growth in a cell viability assay.

[22] = tested on: BXPC-3; conditions: Homo sapiens, BXPC-3;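 note: growth inhibition of human BxPC-3 cells, read out by a cell viability assay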
Description: SANGER: Inhibition of human BxPC-3 cell growth in a cell viability assay.

[23] = tested on: CAKI-1; conditions: Homo sapiens, CAKI-1;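 note: growth inhibition of CAKI-1 cells, measured by a cell viability assay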
Description: SANGER: Inhibition of human CAKI-1 cell growth in a cell viability assay.

[24] = tested on: KNS-62; conditions: Homo sapiens, KNS-62;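 note: inhibition of cell growth, read out with a cell viability assay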
Description: SANGER: Inhibition of human KNS-62 cell growth in a cell viability assay.

[25] = tested on: SNU-423; conditions: Homo sapiens, SNU-423
Description: SANGER: Inhibition of human SNU-423 cell growth in a cell viability assay.

[26] = tested on: NCI-H1573; conditions: Homo sapiens, NCI-H1573;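 note: growth inhibition of NCI-H1573 cells, read out with a cell viability assay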
Description: SANGER: Inhibition of human NCI-H1573 cell growth in a cell viability assay.

[27] = tested on: S-117; conditions: Homo sapiens, S-117
Description: SANGER: Inhibition of human S-117 cell growth in a cell viability assay.

[28] = tested on: AGS; conditions: Homo sapiens, AGS;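 note: growth inhibition of AGS cells, determined with a cell viability assay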
Description: SANGER: Inhibition of human AGS cell growth in a cell viability assay.

[29] = tested on: SCC-4; conditions: Homo sapiens, SCC-4;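 note: growth inhibition of human SCC-4 cells, read out as cell viability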
Description: SANGER: Inhibition of human SCC-4 cell growth in a cell viability assay.

[30] = tested on: KYSE-520 cell line; conditions: Homo sapiens, KYSE-520;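 note: growth inhibition of human KYSE-520 cells, read out with a viability assay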
Description: SANGER: Inhibition of human KYSE-520 cell growth in a cell viability assay.

[31] = tested on: YAPC; conditions: Homo sapiens, YAPC;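 note: growth inhibition of YAPC cells, measured with a cell viability assay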
Description: SANGER: Inhibition of human YAPC cell growth in a cell viability assay.

[32] = tested on: C3A; conditions: Homo sapiens, C3A;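 note: growth inhibition of C3A human cells, quantified with a cell viability readout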
Description: SANGER: Inhibition of human C3A cell growth in a cell viability assay.

[33] = tested on: A-431; conditions: Homo sapiens, A-431;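 note: growth inhibition of A-431 cells, determined with a cell viability read-out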
Description: SANGER: Inhibition of human A431 cell growth in a cell viability assay.

[34] = tested on: EGI-1; conditions: Homo sapiens, EGI-1;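 note: cell viability readout used to gauge growth inhibition of EGI-1 cells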
Description: SANGER: Inhibition of human EGI-1 cell growth in a cell viability assay.

[35] = tested on: PANC-03-27; conditions: Homo sapiens, PANC-03-27
Description: SANGER: Inhibition of human PANC-03-27 cell growth in a cell viability assay.

[36] = tested on: Daoy; conditions: Homo sapiens, Daoy;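 note: daoy cell growth inhibition, read out as cell viability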
Description: SANGER: Inhibition of human Daoy cell growth in a cell viability assay.

SMILES	IC50 [1] [µM]	IC50 [2] [µM]	IC50 [3] [µM]	IC50 [4] [µM]	IC50 [5] [µM]	IC50 [6] [µM]	IC50 [7] [µM]	IC50 [8] [µM]	IC50 [9] [µM]	IC50 [10] [µM]	IC50 [11] [µM]	IC50 [12] [µM]	IC50 [13] [µM]	IC50 [14] [µM]	IC50 [15] [µM]	IC50 [16] [µM]	IC50 [17] [µM]	IC50 [18] [µM]	IC50 [19] [µM]	IC50 [20] [µM]	other results
COc1cc2c(Nc3ccc(NC(=O)c4ccccc4)cc3)ncnc2cc1OCCCN1CCOCC1	> 4	> 4	> 4	> 4	> 4	> 4	> 4	1.81	> 4	> 4	> 4	> 4	> 4	> 4	> 4	> 4	> 4	> 4	1.7	> 4	IC50 [21]: 2.13 µM; IC50 [22]: > 4 µM; IC50 [23]: > 4 µM; IC50 [24]: > 4 µM; IC50 [25]: > 4 µM; IC50 [26]: > 4 µM; IC50 [27]: > 4 µM; IC50 [28]: > 4 µM; IC50 [29]: > 4 µM; IC50 [30]: > 4 µM; IC50 [31]: > 4 µM; IC50 [32]: > 4 µM; IC50 [33]: > 4 µM; IC50 [34]: > 4 µM; IC50 [35]: > 4 µM; IC50 [36]: > 4 µM
CC(C)CCN1c2nc(Nc3cc(F)c(O)c(F)c3)ncc2N(C)C(=O)C1C (stereo not given)	> 5	> 5	> 5	2.13	> 5	> 5	> 5	> 5	> 5	4.1	> 5	> 5	> 5	> 5	2.73	> 5	1.13	4.72	1.46	> 5	IC50 [21]: 4.83 µM; IC50 [22]: > 5 µM; IC50 [23]: > 5 µM; IC50 [24]: > 5 µM; IC50 [25]: > 5 µM; IC50 [26]: > 5 µM; IC50 [27]: > 5 µM; IC50 [28]: 2.34 µM; IC50 [29]: 3.09 µM; IC50 [30]: > 5 µM; IC50 [31]: > 5 µM; IC50 [32]: > 5 µM; IC50 [33]: 4.14 µM; IC50 [34]: > 5 µM; IC50 [35]: 4.3 µM; IC50 [36]: 0.988 µM
Nc1cccc2c1CN(C1CCC(=O)NC1=O)C2=O (stereo not given) [LENALIDOMIDE]	> 5	> 5	> 5	> 5	> 5	> 5	> 5	> 5	> 5	> 5	> 5	> 5	> 5	> 5	> 5	> 5	> 5	> 5	> 5	> 5	IC50 [21]: > 5 µM; IC50 [22]: > 5 µM; IC50 [23]: > 5 µM; IC50 [24]: > 5 µM; IC50 [25]: > 5 µM; IC50 [26]: > 5 µM; IC50 [27]: > 5 µM; IC50 [28]: > 5 µM; IC50 [29]: > 5 µM; IC50 [30]: > 5 µM; IC50 [31]: > 5 µM; IC50 [32]: > 5 µM; IC50 [33]: > 5 µM; IC50 [34]: > 5 µM; IC50 [35]: > 5 µM; IC50 [36]: > 5 µM
CC1(C)CNc2cc(NC(=O)c3cccnc3NCc3ccncc3)ccc21 [MOTESANIB]	> 2	> 2	> 2	> 2	> 2	> 2	> 2	> 2	> 2	> 2	> 2	> 2	> 2	> 2	> 2	> 2	> 2	> 2	> 2	> 2	IC50 [21]: > 2 µM; IC50 [22]: > 2 µM; IC50 [23]: > 2 µM; IC50 [24]: > 2 µM; IC50 [25]: > 2 µM; IC50 [26]: > 2 µM; IC50 [27]: > 2 µM; IC50 [28]: > 2 µM; IC50 [29]: > 2 µM; IC50 [30]: > 2 µM; IC50 [31]: > 2 µM; IC50 [32]: > 2 µM; IC50 [33]: > 2 µM; IC50 [34]: > 2 µM; IC50 [35]: > 2 µM; IC50 [36]: > 2 µM
Cc1cn(-c2cc(NC(=O)c3ccc(C)c(Nc4nccc(-c5cccnc5)n4)c3)cc(C(F)(F)F)c2)cn1 [NILOTINIB]	> 2	> 2	> 2	> 2	> 2	> 2	> 2	> 2	> 2	> 2	> 2	> 2	> 2	> 2	> 2	> 2	> 2	> 2	> 2	> 2	IC50 [21]: > 2 µM; IC50 [22]: > 2 µM; IC50 [23]: > 2 µM; IC50 [24]: > 2 µM; IC50 [25]: > 2 µM; IC50 [26]: > 2 µM; IC50 [27]: > 2 µM; IC50 [28]: > 2 µM; IC50 [29]: > 2 µM; IC50 [30]: > 2 µM; IC50 [31]: > 2 µM; IC50 [32]: > 2 µM; IC50 [33]: > 2 µM; IC50 [34]: > 2 µM; IC50 [35]: > 2 µM; IC50 [36]: > 2 µM
